Entries after “also recorded” stand apart in the source; their conditions may differ. Like-named read-outs stand apart in the source and are kept apart here. Each block holds one molecule with its values, some of them ahead of it.
Experiments:
NF-κB pathway [1] = assay: NF-κB luciferase reporter assay in LPS-induced HEK293/NF-κB-Luc cells; type: cell-based; details: for inhibition at 100 µM / IC50: Homo sapiens; for inhibition at 100 µM: HEK293, 24 h, read-out: NF-κB Inhibitory Rates (%) (n = 3); for IC50: read-out: IC50 (NF-κB inhibition)
Description: Anti-inflammation bioassays were carried out using the HEK293/NF-κB-Luc cells, which were produced as the described procedure. The HEK293/NF-κB-Luc cells were inoculated into 48-well plates and cultured in DMEM supplemented with 10% fetal bovine serum (FBS) for 16 h. Following treatment with the tested compounds, the cells were simulated with 1 μg/mL of LPS for a duration of 24 h. Then, the cells were rinsed twice with phosphate-buffered saline (PBS, pH 7.4) prior to lysing with passive lysis buffer. Then, the inhibitory effects on NF-κB were analyzed using the luciferase assay system according to the manufacturer’s instructions. All the experiments were performed in triplicate.

HEK293 cells = assay: Cell viability by CCK-8 method; type: cell-based; details: concentration of 100 μM
Description: (§1) The effect of the test compounds on the viability of HEK293 cells was determined by the CCK-8 method. Briefly, HEK293 cells were inoculated into 96-well plates with 5 × 10^3 cells per well and incubated at 37 °C with 5% CO2 for 24 h. The cells were treated with test compounds and incubated for 48 h; then, 20 μL of the CCK-8 reagent was added into each well and incubated for another 2 h. The absorbance at 450 nm was measured with a microplate reader to further calculate the cell viability. All experiments were performed in triplicate.

[2] = Cell viability by CCK-8 method; type: cell-based; details: human; HEK293 cells, CCK-8, compounds at 100 μM, 48 h; read-out: Cell Viability (%) (n = 3)
Description: as §1

nitric oxide generation = details: cited from earlier work; for IC50: LPS induced RAW264.7 cells ref 24, read-out: IC50 (nitric oxide inhibitory effects); for suppressed nitric oxide generation: LPS induced RAW264.7 cells, concentration of 5 μM ref 23
NF-κB pathway [3] = test system: NF-κB pathway; set-up: method as in PMID 36364101; details: LPS-induced HEK293/NF-κB-Luc cells; previous study ref 26; read-out: IC50 (inhibitory activity on the NF-κB pathway); cited from earlier work
[4] = test system: cytokines (TNF-α, IL-1β, IL-8, IL-2, IL-4, and IFN-γ); set-up: method as in PMID 11374948; details: 10 μg/mL, IL-8, IL-2, IL-4, IFN-γ, inhibitory rates reaching 100% in some cases ref 25; cited from earlier work
[5] = compounds at 100 μM, 1 μg/mL LPS 24 h

Molecule: Cc1ccc(NCCCc2ccccc2)c(N)c1 [JSH23, reference compound]
NF-κB Inhibitory Rates (%) (n = 3) (NF-κB pathway [1]; [5]): 74.56 ± 1.83%

Molecule: CC(=O)OCC12C(OC(C)=O)C(O)C3OC(=O)C(C)C(C)c4ccncc4C(=O)OCC4(C)OC1(C(O)C4C(OC(C)=O)C2OC(C)=O)C3(C)O (stereo not drawn) [Compound 4, 1β,7β,8β,11-tetraacetoxy-1β,4α,5α-trihydroxy-3α,15-[2′,3′-dimethyl-3′-(3″-carboxy-4″-pyridyl)propanic acid] dicarbolactone dihydro-β-agarofuran]
inhibition at 100 µM (NF-κB pathway [1]; [5]): > 45%
IC50 (NF-κB pathway [1]): 1.64 µM
influence on cell viability (in words) (HEK293 cells): no influence on the cell viability; also recorded: no cytotoxicity
viability at 48 h, 100 µM [2]: 100 ± 2.55%

Molecule: CC(=O)OC[C@]12[C@H](OC(C)=O)C(=O)[C@@H]3[C@@H](OC(C)=O)[C@@]14O[C@@]3(C)COC(=O)c1cccnc1CCC(C)(OC(C)=O)C(=O)O[C@@H]([C@H](OC(=O)c1ccoc1)[C@@H]2OC(C)=O)[C@]4(C)O (stereo partly shown) [9′-O-acetyl-7-deacetoxy-7-oxowilfortrine]
IC50 (nitric oxide generation): 2.59 ± 3.59 µM

Molecule: CC(=O)OC[C@]12[C@H](OC(C)=O)[C@H](OC(C)=O)[C@@H]3[C@@H](OC(C)=O)[C@@]14O[C@@]3(C)COC(=O)c1cccnc1CCC(C)C(=O)O[C@@H]([C@H](OC(C)=O)[C@@H]2OC(C)=O)[C@]4(C)O (stereo partly shown) [euonine]
suppressed nitric oxide generation (nitric oxide generation): 54.7%

Molecule: wilfordatine E
IC50 (NF-κB pathway [3]): 8.75 µM

IC50 (NF-κB pathway [1]): 9.05 µM
Molecule: CC(=O)OC[C@]12[C@H](OC(C)=O)[C@H](OC(C)=O)[C@@H]3[C@@H](OC(C)=O)[C@@]14O[C@@]3(C)COC(=O)c1cnccc1C(C)C(C)C(=O)O[C@@H]([C@H](O)[C@@H]2OC(C)=O)[C@]4(C)O (stereo partly shown) [Compound 6, wilfordinine A]
inhibition at 100 µM (NF-κB pathway [1]; [5]): > 45%
suppressed nitric oxide generation (nitric oxide generation): 59.0%
influence on cell viability (in words) (HEK293 cells): no influence on the cell viability; also recorded: no cytotoxicity
viability at 48 h, 100 µM [2]: 92.4 ± 7.62%

Molecule: CC(=O)OCC12C(OC(C)=O)C(OC(C)=O)C3C(OC(C)=O)C14OC3(C)COC(=O)c1cnccc1CCC(C)(O)C(=O)OC(C(OC(=O)c1ccco1)C2OC(C)=O)C4(C)O (stereo not shown) [Compound 2, wilfordinine H]
inhibition at 100 µM (NF-κB pathway [1]; [5]): 33.9 ± 2.06%
viability at 48 h, 100 µM [2]: 94.2 ± 5.75%

Molecule: CC(=O)OCC12C(OC(C)=O)C(OC(C)=O)C3C(OC(C)=O)C14OC3(C)COC(=O)c1cnccc1C(C)C(C)(O)C(=O)OC(C(OC(C)=O)C2OC(C)=O)C4(C)O (stereo not shown) [Compound 7, wilfordinine B]
inhibition at 100 µM (NF-κB pathway [1]; [5]): 32.1 ± 5.7%
viability at 48 h, 100 µM [2]: 95 ± 36.2%

Molecule: CC(=O)OC[C@]12[C@H](OC(C)=O)[C@H](OC(C)=O)[C@@H]3[C@@H](OC(C)=O)[C@@]14O[C@@]3(C)COC(=O)c1cccnc1CCC(C)(O)C(=O)O[C@@H]([C@H](O)[C@@H]2OC(C)=O)[C@@]4(C)O (stereo partly shown) [tripfordine A]
IC50 (NF-κB pathway [3]): 0.74 µM

Molecule: CC(=O)OC[C@]12[C@H](OC(C)=O)[C@H](OC(C)=O)[C@@H]3[C@@H](OC(C)=O)[C@@]14O[C@@]3(C)COC(=O)c1cccnc1CCC(C)C(=O)O[C@@H]([C@H](OC(=O)c1ccccc1)[C@@H]2OC(C)=O)[C@]4(C)O (stereo partly shown) [wilforine]
IC50 (NF-κB pathway [3]): 15.7 µM

Molecule: CC(=O)OC[C@]12[C@H](OC(C)=O)[C@H](OC(C)=O)[C@@H]3[C@@H](OC(=O)c4ccccc4)[C@@]14O[C@@]3(C)COC(=O)c1cccnc1C(C)C(C)C(=O)O[C@@H]([C@H](OC(C)=O)[C@@H]2OC(C)=O)[C@]4(C)O (stereo partly shown) [congorinine E-1]
inhibitory effects on the production of cytokines (in words) [4]: significant inhibitory effects

Molecule: CC(=O)OC[C@]12[C@H](OC(C)=O)[C@H](OC(C)=O)[C@@H]3[C@@H](OC(=O)c4ccccc4)[C@@]14O[C@@]3(C)COC(=O)c1cccnc1C(C)C(C)C(=O)O[C@@H]([C@H](OC(C)=O)[C@@H]2OC(=O)c1ccccc1)[C@]4(C)O (stereo partly shown) [ebenifoline E-11]
inhibitory effects on the production of cytokines (in words) [4]: significant inhibitory effects

Molecule: CC(=O)OCC12C(OC(C)=O)C(=O)C3C(OC(C)=O)C14OC3(C)COC(=O)c1cccnc1CCC(C)(OC(=O)c1ccoc1)C(=O)OC(C(O)C2OC(C)=O)C4(C)O (stereo not shown) [tripterygiumine S]
IC50 (nitric oxide generation): 23.8 ± 4.38 µM

Molecule: CC(=O)OCC12C(OC(C)=O)C(OC(C)=O)C3C(OC(C)=O)C14OC3(C)COC(=O)c1cnccc1C(C)C(C)C(=O)OC(C(OC(C)=O)C2OC(C)=O)C4(C)O (stereo not shown) [Compound 8, peritassine A]
inhibition at 100 µM (NF-κB pathway [1]; [5]): 19.1 ± 3.2%
suppressed nitric oxide generation (nitric oxide generation): 8.2%
viability at 48 h, 100 µM [2]: 93.9 ± 6.1%
